This passage reports mutagenic call results from PubChem BioAssay AID1259407 (Chemical Carcinogenesis Research Information System (CCRIS), 2018).

This series deals with CCRIS mutagenicity, Ames/micronucleus/aberration tests. The series is described as follows: CCRIS mutagenicity studies.
Setting [1] is: Test System: AMES SALMONELLA TYPHIMURIUM, Strain/Indicator: TA98, Metabolic Activation: NONE, Method: STANDARD PLATE.
The mark [2] stands for this setting: Test System: AMES SALMONELLA TYPHIMURIUM, Strain/Indicator: TA98, Metabolic Activation: RAT, LIVER, S-9, AROCLOR 1254, Method: STANDARD PLATE.
[3] abbreviates: Test System: AMES SALMONELLA TYPHIMURIUM, Strain/Indicator: TA100, Metabolic Activation: NONE, Method: STANDARD PLATE.
Where [4] appears, read: Test System: AMES SALMONELLA TYPHIMURIUM, Strain/Indicator: TA100, Metabolic Activation: RAT, LIVER, S-9, AROCLOR 1254, Method: STANDARD PLATE.
The mark [5] stands for this setting: Test System: AMES SALMONELLA TYPHIMURIUM, Strain/Indicator: TA1537, Metabolic Activation: NONE, Method: STANDARD PLATE.
Setting [6] is: Test System: AMES SALMONELLA TYPHIMURIUM, Strain/Indicator: TA1537, Metabolic Activation: RAT, LIVER, S-9, AROCLOR 1254, Method: STANDARD PLATE.

Activity calls are given as the source filed them. How the calls were made is not given here.

Take `O=C(O)Nc1ccc(-c2ccccc2)cc1`: the mutagenic call was “active; positive” (Test System: AMES SALMONELLA TYPHIMURIUM, Strain/Indicator: TA98, Metabolic Activation: NONE, Method: PREINCUBATION); “active; positive” (Test System: AMES SALMONELLA TYPHIMURIUM, Strain/Indicator: TA98, Metabolic Activation: RAT, LIVER, CYTOSOL, Method: PREINCUBATION); “active; positive” (Test System: AMES SALMONELLA TYPHIMURIUM, Strain/Indicator: TA98, Metabolic Activation: RAT, LIVER, MICROSOMES, Method: PREINCUBATION).
`CC1=CC(=O)c2c(O)c3c(c(O)c2C1=O)C1C(O)C(C3=O)C23C(=O)c4c(O)c(C)cc(O)c4C(O)=C2C(=O)CC(O)C13` (stereo not given): the mutagenic call (Test System: UDS RODENT HEPATOCYTES, Strain/Indicator: THY INCORP, Metabolic Activation: NONE, Method: AUTORADIOGRAPHY) is “inactive; negative”.
In the case of `O=CN(O)c1ccc(Br)cc1`, the mutagenic call was “inactive; negative” under setting [1], “active; positive” under setting [2], “inactive; negative” under setting [3] and “active; positive” under setting [4].
With `c1ccc2c(OCC3CO3)nsc2c1` (stereo not given), the mutagenic call under setting [3] is “active; positive”.
`C=Cc1ccc(O)c(C=C)c1`: the mutagenic call is, setting by setting: under setting [1], “inactive; negative”; (Test System: AMES SALMONELLA TYPHIMURIUM, Strain/Indicator: TA98, Metabolic Activation: S-9, Method: STANDARD PLATE) “inactive; negative”; under setting [3], “inactive; negative”; (Test System: AMES SALMONELLA TYPHIMURIUM, Strain/Indicator: TA100, Metabolic Activation: S-9, Method: STANDARD PLATE) “inactive; negative”.
For the molecule `Cc1cc(O)c2c(c1O)C(=O)c1cc(O)cc(O)c1C2=O`, the mutagenic call runs as follows: under setting [5], “inactive; negative”; (Test System: AMES SALMONELLA TYPHIMURIUM, Strain/Indicator: TA1537, Metabolic Activation: RAT, LIVER, S-9, PCB, Method: STANDARD PLATE) “inactive; negative”.
Turning to `O=C(O)c1cc2c(c3c1c([N+](=O)[O-])cc1c(O)cccc13)OCO2`, the mutagenic call is, setting by setting: under setting [3], “active; positive”; under setting [4], “inactive; negative”; under setting [5], “active; positive”; under setting [6], “inactive; negative”.
In the case of `CC(=O)OC1Cc2cc3cccc4ccc5ccc1c2c5c43` (stereo not given), the mutagenic call under setting [1] is “active; positive” and the mutagenic call under setting [3] was “active; positive”.
`CCOC(=O)C(C)Br` (stereo not given): the mutagenic call under setting [3] is “active; positive”.
For `O=C(OCc1ccc(Cl)cc1Cl)c1cccc2cccnc12`, the mutagenic call under setting [1] is “inactive; negative”; the mutagenic call under setting [2] was “inactive; negative”; the mutagenic call under setting [3] is “inactive; negative”; the mutagenic call under setting [4] is “inactive; negative”; the mutagenic call (Test System: AMES SALMONELLA TYPHIMURIUM, Strain/Indicator: TA1535, Metabolic Activation: NONE, Method: STANDARD PLATE) is “inactive; negative”; the mutagenic call (Test System: AMES SALMONELLA TYPHIMURIUM, Strain/Indicator: TA1535, Metabolic Activation: RAT, LIVER, S-9, AROCLOR 1254, Method: STANDARD PLATE) is “inactive; negative”. Moreover, the mutagenic call reads like this: under setting [5], “inactive; negative”; under setting [6], “inactive; negative”.
